Format in all cases: functional
Assay [1] deals with Acanthocheilonema viteae. Description: Compound was tested in vivo for anti-filarial activity against A. viteae through oral route of administration at 200 mg/kg for 5 days and macrofilaricidal response was observed.
The test system of assay [2] is Acanthocheilonema viteae. Briefly: Compound was tested in vivo for anti-filarial activity against A. viteae through oral route of administration at 200 mg/kg for 5 days and microfilaricidal response was observed.
For assay [3], the system named is Acanthocheilonema viteae. Description: Compound was tested in vivo for anti-filarial activity against A. viteae through oral route of administration at 200 mg/kg for 5 days and sterilization of female worms was observed.
For assay [4], the system named is Acanthocheilonema viteae. Briefly: Compound was tested in vivo for anti-filarial activity against A. viteae through oral route of administration at 200 mg/kg for 5 days and sterilization of inactive worms was observed.

Molecules are shown by their SMILES.

Turning to `CCCCCCCNc1ccccc1`, the Reduction in the assay on Acanthocheilonema viteae [1] was determined as 0%; with Acanthocheilonema viteae [2] it was 69%. Further, the Activity with Acanthocheilonema viteae [3] was 0%.
Take `CCCCNc1ccc(F)c(Cl)c1`: the Reduction is 0% in the assay on Acanthocheilonema viteae [1] and 32% with Acanthocheilonema viteae [2]. The compound further gave an Activity in the assay with Acanthocheilonema viteae [4] of 0%.
Turning to `CCCCCCNc1ccc(F)cc1`, the values for the Reduction with Acanthocheilonema viteae [1] and in the assay with Acanthocheilonema viteae [2] were 50% and 0%, respectively. Besides, the Activity in the assay with Acanthocheilonema viteae [3] is 0%.
For the compound `CCCCN(CCCC)c1ccc(F)cc1`, the Reduction in the assay on Acanthocheilonema viteae [1] is 0%; with Acanthocheilonema viteae [2], 81%. The Activity in the assay with Acanthocheilonema viteae [4] was determined as 50%.
The like results for `CCCCN(CCCC)c1ccccc1` were, in that order, 0%, 77% and 55%.
Turning to `CCCCCCNc1ccc(F)c(Cl)c1`, the Reduction in the assay on Acanthocheilonema viteae [1] came out at 88%; with Acanthocheilonema viteae [2], 50%. The same compound returned an Activity in the assay on Acanthocheilonema viteae [3] of 0%.
For `CCCCCCNc1ccccc1` the same measures were 50%, 58% and 0%.
For `CCCCN(CCCC)C1CCCCC1` the same measures were 0%, 93% and 50%.
Turning to `CCCCCCNC1CCCCC1`, the figures for the Reduction with Acanthocheilonema viteae [1] and with Acanthocheilonema viteae [2] were 100% and 0%, respectively. The Activity in the assay with Acanthocheilonema viteae [3] is 0%.
